Results reported in PubChem BioAssay AID248 (DTP/NCI, 2004).
Several values for one entry are separate records, joined by “and”; a condition that tells them apart may be missing. Equal values may be shown once. Inconclusive results and toxic doses are left out. Rule as the data show it: active = T/C of 150% or more; inactive = T/C below 125%.

Tested on: L1210 leukemia ip in BDF1 mice, survival T/C
Test: NCI In Vivo Anticancer Drug Screen. Data for tumor model L1210 Leukemia (intraperitoneal) in B6D2F1 (BDF1) mice
Conditions: endpoint: mean survival time, higher = longer survival
How it was run: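 In this screen, tumor-bearing mice given compound are compared to those given vehicle, and their survival values are reported as a treated-to-control quotient.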

[1] = dose: 100.0 mg/kg/injection, schedule: Q04DX002 (ip), vehicle: saline with Tween-80
[2] = dose: 100.0 mg/kg/injection, schedule: Q01DX001 (ip), vehicle: acetone
[3] = dose: 200.0 mg/kg/injection, schedule: Q01DX001 (ip), vehicle: acetone
[4] = dose: 400.0 mg/kg/injection, schedule: Q01DX001 (ip), vehicle: acetone
[5] = dose: 25.0 mg/kg/injection, schedule: Q01DX001 (ip), vehicle: Klucel (hydroxypropylcellulose) (HPC)
[6] = dose: 100.0 mg/kg/injection, schedule: Q01DX009 (ip), vehicle: Klucel (hydroxypropylcellulose) (HPC)
[7] = dose: 100.0 mg/kg/injection, schedule: Q04DX003 (ip), vehicle: Klucel (hydroxypropylcellulose) (HPC)
[8] = dose: 200.0 mg/kg/injection, schedule: Q01DX009 (ip), vehicle: Klucel (hydroxypropylcellulose) (HPC)
[9] = dose: 200.0 mg/kg/injection, schedule: Q04DX003 (ip), vehicle: Klucel (hydroxypropylcellulose) (HPC)
[10] = dose: 400.0 mg/kg/injection, schedule: Q01DX009 (ip), vehicle: Klucel (hydroxypropylcellulose) (HPC)
[11] = dose: 400.0 mg/kg/injection, schedule: Q04DX003 (ip), vehicle: Klucel (hydroxypropylcellulose) (HPC)
[12] = dose: 100.0 mg/kg/injection, schedule: Q04DX003 (ip), vehicle: saline with Tween-80
[13] = dose: 200.0 mg/kg/injection, schedule: Q04DX003 (ip), vehicle: saline with Tween-80
[14] = dose: 400.0 mg/kg/injection, schedule: Q04DX003 (ip), vehicle: saline with Tween-80
[15] = dose: 100.0 mg/kg/injection, schedule: Q01DX009 (ip), vehicle: saline with Tween-80
[16] = dose: 200.0 mg/kg/injection, schedule: Q01DX009 (ip), vehicle: saline with Tween-80

Measured: T/C

CCCCCCNC(=O)COc1ccc(Cl)cc1
inactive: dose: 100.0 mg/kg/injection, schedule: Q04DX002 (ip), vehicle: Klucel (hydroxypropylcellulose) (HPC) 97 % of control | dose: 200.0 mg/kg/injection, schedule: Q04DX002 (ip), vehicle: Klucel (hydroxypropylcellulose) (HPC) 93 % of control | dose: 400.0 mg/kg/injection, schedule: Q04DX002 (ip), vehicle: Klucel (hydroxypropylcellulose) (HPC) 101 % of control

COc1ccc(CCNC(=O)c2ccc(Cl)c(Cl)c2)cc1OC
inactive: dose: 25.0 mg/kg/injection, schedule: Q04DX002 (ip), vehicle: saline with Tween-80 100 % of control | dose: 50.0 mg/kg/injection, schedule: Q04DX002 (ip), vehicle: saline with Tween-80 96 % of control | [1] 106 % of control and 107 % of control

O=C(O)CC(CC(=O)O)c1cccc([N+](=O)[O-])c1
inactive: [2] 96 % of control | [3] 98 % of control | [4] 98 % of control

c1ccc(N=NC(c2ccccc2)c2ccccc2)cc1
inactive: dose: 50.0 mg/kg/injection, schedule: Q04DX003 (ip), vehicle: saline 106 % of control | dose: 100.0 mg/kg/injection, schedule: Q04DX003 (ip), vehicle: saline 95 % of control | dose: 200.0 mg/kg/injection, schedule: Q04DX003 (ip), vehicle: saline 106 % of control

CCC[As](=O)(O)c1ccc(Cl)cc1
inactive: dose: 1.56 mg/kg/injection, schedule: Q01DX001 (ip), vehicle: Klucel (hydroxypropylcellulose) (HPC) 100 % of control | dose: 3.13 mg/kg/injection, schedule: Q01DX001 (ip), vehicle: Klucel (hydroxypropylcellulose) (HPC) 91 % of control | dose: 6.25 mg/kg/injection, schedule: Q01DX001 (ip), vehicle: Klucel (hydroxypropylcellulose) (HPC) 98 % of control | dose: 12.5 mg/kg/injection, schedule: Q01DX001 (ip), vehicle: Klucel (hydroxypropylcellulose) (HPC) 109 % of control | [5] 92 % of control

COc1ccc(CN2CCCN(Cc3ccc(OC)cc3)C2c2cc(I)cc(I)c2O)cc1
inactive: [2] 96 % of control | [3] 96 % of control | [4] 94 % of control

CC(=O)Oc1cccc(OC(C)=O)c1OC(C)=O
inactive: [6] 103 % of control | [7] 107 % of control | [8] 100 % of control | [9] 97 % of control | [10] 97 % of control | [11] 100 % of control

NC(=O)NC(=O)NC1CCCCC1
inactive: [7] 102 % of control | [9] 102 % of control | [11] 100 % of control

O=C(O)c1ccc(Br)cc1O
inactive: dose: 100.0 mg/kg/injection, schedule: Q01DX001 (ip), vehicle: carboxymethylcellulose (CMC) 98 % of control | dose: 200.0 mg/kg/injection, schedule: Q01DX001 (ip), vehicle: carboxymethylcellulose (CMC) 104 % of control | dose: 400.0 mg/kg/injection, schedule: Q01DX001 (ip), vehicle: carboxymethylcellulose (CMC) 95 % of control

Cc1ccc2nc(-c3cc(Br)ccc3O)c(-c3cc(Br)ccc3O)nc2c1
inactive: [6] 97 % of control | [7] 96 % of control | [8] 100 % of control | [9] 101 % of control | [10] 89 % of control | [11] 101 % of control

COC(=O)C(I)C(OC)c1ccccc1 (configuration not stated)
inactive: [12] 98 % of control | [13] 96 % of control | [14] 95 % of control

CC(=O)Nc1ccc(/C=N\NC(=S)Nc2ccccc2)cc1
inactive: [6] 107 % of control | [8] 93 % of control | [10] 94 % of control

CCOc1ccc(/C=N/NC(=S)NC23CC4CC(CC(C4)C2)C3)cc1OCC
inactive: dose: 75.0 mg/kg/injection, schedule: Q01DX001 (ip), vehicle: saline 94 % of control | dose: 150.0 mg/kg/injection, schedule: Q01DX001 (ip), vehicle: saline 95 % of control | dose: 300.0 mg/kg/injection, schedule: Q01DX001 (ip), vehicle: saline 94 % of control

Nc1ncc(CO)c(N)n1
inactive: [5] 100 % of control | dose: 50.0 mg/kg/injection, schedule: Q01DX001 (ip), vehicle: Klucel (hydroxypropylcellulose) (HPC) 98 % of control | dose: 100.0 mg/kg/injection, schedule: Q01DX001 (ip), vehicle: Klucel (hydroxypropylcellulose) (HPC) 98 % of control and 100 % of control

NC(=S)c1ccc(Cl)cc1
inactive: [15] 95 % of control | [1] 101 % of control | [16] 110 % of control | dose: 200.0 mg/kg/injection, schedule: Q04DX002 (ip), vehicle: saline with Tween-80 97 % of control | dose: 400.0 mg/kg/injection, schedule: Q04DX002 (ip), vehicle: saline with Tween-80 97 % of control

COc1ccc(C)cc1NC(=O)Nc1ccco1
inactive: [15] 97 % of control | [16] 92 % of control | dose: 400.0 mg/kg/injection, schedule: Q01DX009 (ip), vehicle: saline with Tween-80 90 % of control

O/N=C\CCC/C=N/O
inactive: [6] 98 % of control | [7] 100 % of control | [8] 91 % of control | [9] 94 % of control | [11] 103 % of control

O=C(O)CN1C(=O)OC(c2ccccc2)C1=O (configuration not stated)
inactive: [6] 101 % of control | [8] 97 % of control | [10] 86 % of control

CSc1ccccc1C=Nc1ccccc1O
inactive: dose: 100.0 mg/kg/injection, schedule: Q01DX001 (ip), vehicle: saline with Tween-80 101 % of control | dose: 200.0 mg/kg/injection, schedule: Q01DX001 (ip), vehicle: saline with Tween-80 98 % of control | dose: 400.0 mg/kg/injection, schedule: Q01DX001 (ip), vehicle: saline with Tween-80 103 % of control

CC(C)COC(=O)C(C)OC(=O)OCCOCCOC(=O)OC(C)C(=O)OCC(C)C (configuration not stated)
inactive: dose: 100.0 mg/kg/injection, schedule: Q01DX001 (ip), vehicle: saline 100 % of control | dose: 200.0 mg/kg/injection, schedule: Q01DX001 (ip), vehicle: saline 102 % of control | dose: 400.0 mg/kg/injection, schedule: Q01DX001 (ip), vehicle: saline 100 % of control

[N-]=[N+]=CC(=O)NCC(=O)NN=C(CO)CO
inactive: dose: 180.0 mg/kg/injection, schedule: Q01DX009 (ip), vehicle: water 118 % of control | dose: 265.0 mg/kg/injection, schedule: Q01DX009 (ip), vehicle: water 122 % of control

O=C(Nc1ccc(C2=NCCS2)cc1)c1ccc(C(=O)Nc2ccc(C3=NCCS3)cc2)cc1
inactive: dose: 15.0 mg/kg/injection, schedule: Q01DX Z (ip), vehicle: carboxymethylcellulose (CMC) 98 % of control | dose: 30.0 mg/kg/injection, schedule: Q01DX Z (ip), vehicle: carboxymethylcellulose (CMC) 96 % of control | dose: 60.0 mg/kg/injection, schedule: Q01DX Z (ip), vehicle: carboxymethylcellulose (CMC) 95 % of control | dose: 120.0 mg/kg/injection, schedule: Q01DX Z (ip), vehicle: carboxymethylcellulose (CMC) 96 % of control | dose: 125.0 mg/kg/injection, schedule: Q01DX Z (ip), vehicle: water 98 % of control

CC(NC(=O)Oc1ccccc1)Oc1ccccc1 (configuration not stated)
inactive: [12] 96 % of control | [13] 101 % of control | [14] 96 % of control

COc1ccc2c3c1OC1C4(CCC5C(C2)N(CC2CC2)CCC351)OCCO4 (configuration not stated)
inactive: dose: 12.5 mg/kg/injection, schedule: Q04DX003 (ip), vehicle: Klucel (hydroxypropylcellulose) (HPC) 101 % of control | dose: 25.0 mg/kg/injection, schedule: Q01DX009 (ip), vehicle: Klucel (hydroxypropylcellulose) (HPC) 95 % of control | dose: 25.0 mg/kg/injection, schedule: Q04DX003 (ip), vehicle: Klucel (hydroxypropylcellulose) (HPC) 103 % of control | dose: 50.0 mg/kg/injection, schedule: Q01DX009 (ip), vehicle: Klucel (hydroxypropylcellulose) (HPC) 94 % of control | dose: 50.0 mg/kg/injection, schedule: Q04DX003 (ip), vehicle: Klucel (hydroxypropylcellulose) (HPC) 101 % of control | [6] 91 % of control | [7] 101 % of control

Nc1cc(Cl)c(Cl)cc1Cl
inactive: [12] 97 % of control | [13] 101 % of control | [14] 100 % of control
